Assay results: ChEMBL document CHEMBL4308854, “Novel indole-thiazolidinone conjugates: Design, synthesis and whole-cell phenotypic evaluation as a novel class of antimicrobial agents” (Eur J Med Chem, 2018)
≈ marks a conversion by molar mass, not a printed value. Calls of active or inactive are those of the source. The calls are words filed in the database; no cut-off is given here.

How the values were obtained:
Format in all cases: functional
Staphylococcus aureus [1] = experiment: Antibacterial activity against Staphylococcus aureus RCMB 010028 assessed as diameter of zone inhibition after 24 hrs by agar well diffusion assay
Escherichia coli [2] = experiment: Antibacterial activity against Escherichia coli RCMB 010052 assessed as diameter of zone inhibition after 24 hrs by agar well diffusion assay
Pseudomonas aeruginosa [3] = experiment: Antibacterial activity against Pseudomonas aeruginosa RCMB 010043 after 24 hrs by serial dilution method; details: RCMB 010043, 24 h
Staphylococcus aureus [4] = experiment: Antibacterial activity against Staphylococcus aureus RCMB 010028 after 24 hrs by serial dilution method; details: RCMB 010028, 24 h
Pseudomonas aeruginosa [5] = experiment: Antibacterial activity against Pseudomonas aeruginosa RCMB 010043 assessed as diameter of zone inhibition after 24 hrs by agar well diffusion assay
Aspergillus fumigatus [6] = experiment: Antifungal activity against Aspergillus fumigatus RCMB 02568 assessed as diameter of zone inhibition after 48 hrs by agar well diffusion assay
Escherichia coli [7] = experiment: Antibacterial activity against Escherichia coli RCMB 010052 after 24 hrs by serial dilution method; details: RCMB 010052, 24 h
[8] = tested on: Mycobacterium tuberculosis; experiment: Antitubercular activity against Mycobacterium tuberculosis RCMB 010126 clinical isolate after 4 days by microplate alamar blue assay; details: for MIC: Mycobacterium tuberculosis, RCMB 010126, 96 h
Candida albicans [9] = experiment: Antifungal activity against Candida albicans RCMB 05036 assessed as diameter of zone inhibition after 48 hrs by agar well diffusion assay
Aspergillus fumigatus [10] = experiment: Antifungal activity against Aspergillus fumigatus RCMB 02568 after 24 hrs by serial dilution method; details: RCMB 02568, 24 h
Candida albicans [11] = experiment: Antifungal activity against Candida albicans RCMB 05036 after 24 hrs by serial dilution method; details: RCMB 05036, 24 h
Escherichia coli [12] = experiment: Potency index, ratio of ciprofloxacin MIC to compound MIC for Escherichia coli RCMB 010052
Pseudomonas aeruginosa [13] = experiment: Potency index, ratio of ciprofloxacin MIC to compound MIC for Pseudomonas aeruginosa RCMB 010043

SMILES	diameter of the inhibition zone (DIZ) (Staphylococcus aureus [1])	diameter of the inhibition zone (DIZ) (Escherichia coli [2])	MIC (Pseudomonas aeruginosa [3]) [µg/mL]	MIC (Staphylococcus aureus [4]) [µg/mL]	diameter of the inhibition zone (DIZ) (Pseudomonas aeruginosa [5])	diameter of the inhibition zone (DIZ) (Aspergillus fumigatus [6])	MIC (Escherichia coli [7]) [µg/mL]	inhibition (INH) [8] [%]	MIC [8] [µg/mL]	diameter of the inhibition zone (DIZ) (Candida albicans [9])	MIC (Aspergillus fumigatus [10]) [µg/mL]	MIC (Candida albicans [11]) [µg/mL]	Ratio (Escherichia coli [12])	inhibition [8]	Ratio (Pseudomonas aeruginosa [13])
CCOC(=O)c1sc(/N=C2\NC(=O)/C(=C/c3c[nH]c4ccccc34)S2)nc1C	18.9 mm	21.3 mm	7.81 (≈ 18.9 µM)	3.9 (≈ 9.45 µM)	18.5 mm	20.3 mm	1.95 (≈ 4.73 µM)	46.35	6.24 (≈ 15.1 µM)	20.9 mm	3.9 (≈ 9.45 µM)	1.95 (≈ 4.73 µM)	–	–	–
NNC(=O)c1ccncc1 [ISONIAZID]	–	–	–	–	–	–	–	–	0.78 (≈ 5.69 µM)	–	–	–	–	–	–
CC(=O)c1sc(/N=C2\NC(=O)/C(=C3/C(=O)N(Cc4ccccc4)c4ccccc43)S2)nc1C	21.2 mm	23.4 mm	3.9 (≈ 8.22 µM)	1.95 (≈ 4.11 µM)	20.3 mm	21.7 mm	0.98 (≈ 2.07 µM)	58.34	1.56 (≈ 3.29 µM)	22.5 mm	1.95 (≈ 4.11 µM)	0.98 (≈ 2.07 µM)	2	–	–
CCOC(=O)c1sc(/N=C2\NC(=O)/C(=C/c3cn(C)c4ccccc34)S2)nc1C	inactive	inactive	–	–	inactive	inactive	–	–	–	inactive	–	–	–	inactive	–
CC(=O)c1sc(/N=C2\NC(=O)/C(=C/c3c[nH]c4ccccc34)S2)nc1C	18.9 mm	21.3 mm	7.81 (≈ 20.4 µM)	7.81 (≈ 20.4 µM)	18.5 mm	20.3 mm	1.95 (≈ 5.1 µM)	52.41	3.12 (≈ 8.16 µM)	20.9 mm	3.9 (≈ 10.2 µM)	1.95 (≈ 5.1 µM)	–	–	–
CC(=O)c1sc(/N=C2\NC(=O)/C(=C3/C(=O)Nc4ccc(F)cc43)S2)nc1C	18.6 mm	20.6 mm	–	–	19.1 mm	18.1 mm	–	43.26	12.5 (≈ 31 µM)	19.1 mm	–	–	–	–	–
CC(=O)c1sc(/N=C2\NC(=O)/C(=C/c3cn(Cc4ccccc4)c4ccccc34)S2)nc1C	20.6 mm	20.3 mm	15.6 (≈ 33.1 µM)	1.95 (≈ 4.13 µM)	17.3 mm	20.3 mm	3.9 (≈ 8.25 µM)	56.35	1.56 (≈ 3.3 µM)	16.2 mm	3.9 (≈ 8.25 µM)	31.2 (≈ 66.1 µM)	–	–	–
COc1ccc2c(c1)/C(=C1/S/C(=N/c3nc(C)c(C(C)=O)s3)NC1=O)C(=O)N2	21.7 mm	22.4 mm	1.95 (≈ 4.7 µM)	1.95 (≈ 4.7 µM)	21.4 mm	20.8 mm	1.95 (≈ 4.7 µM)	64.35	1.56 (≈ 3.76 µM)	21.3 mm	1.95 (≈ 4.7 µM)	1.95 (≈ 4.7 µM)	–	–	2
CCOC(=O)c1sc(/N=C2\NC(=O)/C(=C/c3cn(Cc4ccccc4)c4ccccc34)S2)nc1C	inactive	inactive	–	–	inactive	inactive	–	–	–	inactive	–	–	–	inactive	–
